The target in test [1] is Plasmepsin-2 (PM-2; Plm II) (Plasmodium falciparum (isolate HB3), UniProt P46925). The test is described as follows: Plasmepsin-2 enzyme inhibition assay. The note with it: Table 13; read-out: PM-2 IC50. The test is classed as biochemical. The protocol:
Plasmepsin-2 (PM-2; Plm II) and Plasmepsin (PM-4; Plm IV) expression and purification was performed following the published protocols (Istvan E S and Goldberg D E, 2005). The final purified protein was activated by diluting the protein to 0.3 mg/mL in activating buffer (0.1 M citrate pH 4.5, 0.1% Tween-20, 50 mM dithiothreitol) and incubated at room temperature for 40 min, then the activated enzyme was diluted in assay buffer (50 mM sodium acetate pH 4.7, 0.01% Tween-20). The enzymatic inhibition reaction was performed in 384 well plates with a total volume of 20 μl. 10 μl of diluted PM-2 or PM-4 enzyme was added to the 384-well plate except blank wells (blank wells add 10 μL of assay buffer) and 20 nL of serials of diluted 1000× compounds were added to the wells with 520 Echo® Liquid Handling System (Labcyte Inc.). 10 μL PM-2 peptide substrate (AnaSpec, Cat#, 62050) with assay buffer was then added to final concentration of 20 μM to start the reaction. After incubation the reaction at room temperature for 60 min, the fluorescence intensity at Ex/Em=360 nm/535 nm was measured using EnVision multilabel plate reader (Perkin-Elmer). The IC50 values were obtained using Graph Pad Prism 4 and are reported in Tables 8 and 9 below as PM-2 IC50 values.

The next test has as its target recombinant human BACE1 (Homo sapiens, UniProt P56817). Description: β-Secretase (BACE1) enzyme inhibition FRET assay. The test is classed as biochemical. The following applies: Table 13; read-out: BACE1 IC50. The protocol:
The enzymatic inhibition activity assays were determined using the fluorescence resonance energy transfer (FRET) assay. The assays were performed in a 384-well plate format. […] CatD and CatE were activated by incubation in assay buffer (0.1 M NaOAc, 0.2 M NaCl, pH 3.5) at room temperature for 30 min. Subsequently, the rhBACE-1 substrate (R&D Systems, catalog# ES004), the Cathepsin D and Cathepsin E substrate (R&D Systems, Catalog # ES001) were added accordingly to final concentration 20 μM to initiate the reaction. After 60 min incubation at room temperature, the time-resolved fluorescence at Ex/Em=360 nm/460 nm was measured on an EnVision multilabel plate reader (Perkin-Elmer). The analytical software, GraphPad Prism 5.0 (GraphPad Software, Inc., USA) was used to generate IC50 values via non-linear regression analysis, which are reported in Tables 8-13 below as BACE1 IC50 values.

In test [2] the test system is Plasmodium falciparum 3D7 (CQ-sensitive). Description: In vitro antimalarial assay (malaria SYBR Green I-based fluorescence, MSF), 3D7. The test is classed as cell-based. The following applies: for inhibition of growth at 1 µM: 3D7, 72 h, read-out: 3D7 % inh @ 1 μM; for IC50: 3D7, read-out: 3D7 IC50 (μM), Table 13. The gist of the method:
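Asynchronous P. falciparum 3D7 cultures (0.5% parasitemia, 2% hematocrit) were exposed to serially diluted compounds, in quadruplicate. Growth was then quantified by SYBR Green I fluorescence after adding lysis buffer containing 0.2 μL/mL dye.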

Sequence of recombinant human BACE1 (P56817 46-501 limits assumed): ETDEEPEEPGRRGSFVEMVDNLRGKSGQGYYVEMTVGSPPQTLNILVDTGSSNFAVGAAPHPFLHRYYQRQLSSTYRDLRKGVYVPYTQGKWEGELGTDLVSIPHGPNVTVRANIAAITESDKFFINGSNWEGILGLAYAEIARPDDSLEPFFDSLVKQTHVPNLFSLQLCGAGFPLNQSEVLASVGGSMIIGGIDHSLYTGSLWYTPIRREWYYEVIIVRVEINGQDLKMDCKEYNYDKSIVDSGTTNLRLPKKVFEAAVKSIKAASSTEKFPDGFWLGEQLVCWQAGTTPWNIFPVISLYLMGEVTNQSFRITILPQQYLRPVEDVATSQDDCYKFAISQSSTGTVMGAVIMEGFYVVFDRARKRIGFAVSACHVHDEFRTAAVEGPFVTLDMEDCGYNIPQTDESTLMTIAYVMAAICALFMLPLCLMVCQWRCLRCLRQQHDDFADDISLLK
Sequence of Plasmepsin-2 (PM-2; Plm II) (P46925 125-453 limits assumed): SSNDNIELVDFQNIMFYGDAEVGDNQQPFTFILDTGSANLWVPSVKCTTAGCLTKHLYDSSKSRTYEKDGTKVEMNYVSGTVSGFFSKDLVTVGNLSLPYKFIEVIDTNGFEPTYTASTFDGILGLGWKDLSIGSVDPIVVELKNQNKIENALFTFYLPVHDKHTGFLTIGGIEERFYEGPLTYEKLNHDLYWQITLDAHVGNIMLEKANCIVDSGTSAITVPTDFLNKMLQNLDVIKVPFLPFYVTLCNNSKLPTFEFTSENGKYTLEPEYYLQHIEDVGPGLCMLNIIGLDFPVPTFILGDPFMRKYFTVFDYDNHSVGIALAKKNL

`COc1ccc(C2(c3ccc(OC)cc3)NC(=N)N(C3CCN(C(=O)CCN(C)C)CC3)C2=O)cc1` [Example 322, 3-{1-[3-(dimethylamino)propanoyl]piperidin-4-yl}-2-imino-5,5-bis(4-methoxyphenyl)imidazolidin-4-one]: the IC50 in test [1] was 0.0202 µM; at recombinant human BACE1, over 10 µM. For the same molecule, in test [2], the inhibition of growth at 1 µM worked out at 34%.
As to `COc1ccc(C2(c3cccnc3)NC(=N)N(C3CCOCC3)C2=O)cc1` (stereo not drawn) [Example 323, 2-imino-5-(4-methoxyphenyl)-3-(oxan-4-yl)-5-(pyridin-3-yl)imidazolidin-4-one], the IC50 in test [1] is 0.0743 µM; at recombinant human BACE1, about 10 µM. Also, the inhibition of growth at 1 µM in test [2] worked out at 31%.
Turning to `COc1ccc(C2(C3CC3)NC(=N)N(C3CCOCC3)C2=O)cc1` (stereo not drawn) [Example 325, 5-cyclopropyl-2-imino-5-(4-methoxyphenyl)-3-(oxan-4-yl)imidazolidin-4-one], the IC50 was 0.426 µM in test [1], over 10 µM on recombinant human BACE1 and 0.752 µM in test [2].
For `COc1ccc(C2(C3CCCCC3)NC(=N)N(C3CCOCC3)C2=O)cc1` (stereo not drawn) [Example 331, 5-cyclohexyl-2-imino-5-(4-methoxy-phenyl)-3-(oxan-4-yl)imidazolidin-4-one] the same measures were 0.0581 µM, about 10 µM and 0.354 µM.
Consider `COc1ccc(C2(c3ccccn3)NC(=N)N(C3CCOCC3)C2=O)cc1` (stereo not drawn) [Example 332, 2-imino-5-(4-methoxyphenyl)-3-(oxan-4-yl)-5-(pyridin-2-yl)-imidazolidin-4-one], for which the IC50 in test [1] was 0.216 µM; at recombinant human BACE1, over 10 µM. Besides, in test [2], the inhibition of growth at 1 µM was determined as 25%.
The like results for `COc1ccc(C2(c3cncnc3)NC(=N)N(C3CCOCC3)C2=O)cc1` (stereo not drawn) [Example 333, 2-imino-5-(4-methoxyphenyl)-3-(oxan-4-yl)-5-(pyrimidin-5-yl)imidazolidin-4-one] were, in that order, 0.639 µM, over 10 µM and 9%.
The like results for `COc1ccc(C2(c3ccncc3)NC(=N)N(C3CCOCC3)C2=O)cc1` (stereo not drawn) [Example 334, 2-imino-5-(4-methoxyphenyl)-3-(oxan-4-yl)-5-(pyridin-4-yl)-imidazolidin-4-one] were, in that order, 0.0859 µM, over 10 µM and 14%.
For the molecule `COc1ccc(C2(C3CCCC3)NC(=N)N(C3CCOCC3)C2=O)cc1` (stereo not drawn) [Example 335, 5-cyclopentyl-2-imino-5-(4-methoxy-phenyl)-3-(oxan-4-yl)imidazolidin-4-one], the IC50 is 0.0907 µM in test [1], over 10 µM at recombinant human BACE1 and 0.377 µM in test [2].
Consider `COc1ccc(C2(c3cnn(C)c3)NC(=N)N(C3CCOCC3)C2=O)cc1` (stereo not drawn) [Example 336, 2-imino-5-(4-methoxyphenyl)-5-(1-methyl-1H-pyrazol-4-yl)-3-(oxan-4-yl)-imidazolidin-4-one], for which the IC50 was 0.395 µM in test [1] and over 10 µM on recombinant human BACE1. Moreover, in test [2], the inhibition of growth at 1 µM amounted to 70%.
With `COc1ccc(C2(C3CCCCC3)NC(=N)N(C3CCCCC3)C2=O)cc1` (stereo not drawn) [Example 447, 3,5-dicyclohexyl-2-imino-5-(4-methoxyphenyl)imidazolidin-4-one], the IC50 in test [1] amounted to 0.0674 µM; at recombinant human BACE1, 17.3 µM; in test [2], 0.494 µM.
The like results for `N=C1NC(c2cccc(-c3cccnc3)c2)(C2CC2)C(=O)N1C1CCOCC1` (stereo not drawn) [Example 487, 5-cyclopropyl-2-imino-5-(3-(pyridin-3-yl)phenyl)-3-(tetrahydro-2H-pyran-4-yl)imidazolidin-4-one] were, in that order, 0.512 µM, 8.65 µM and 0.248 µM.
On to `N#Cc1cncc(-c2cccc(C3(C4CC4)NC(=N)N(C4CCOCC4)C3=O)c2)c1` (stereo not drawn) [Example 488, 5-(3-(4-cyclopropyl-2-imino-5-oxo-1-(tetrahydro-2H-pyran-4-yl)imidazolidin-4-yl)phenyl)nicotinonitrile], for which the IC50 in test [1] came out at 0.443 µM; at recombinant human BACE1, 2.98 µM; in test [2], 0.362 µM.
